According to the NIST ThermoML archive (doi:10.1016/j.fluid.2013.12.017):
Numbers after ± are expanded uncertainties.

Assay: molar heat capacity at constant pressure; xn = mol fraction of the nth substance listed
Conditions: 101 kPa, Liquid, Small sample (50 mg) DSC

CCC(N)(CO)CO [2-amino-2-ethyl-1,3-propanediol] + O
molar heat capacity at constant pressure (303.15 K, x1 = 0.1494): 107.2 ± 4.5 J/K/mol
molar heat capacity at constant pressure (303.15 K, x1 = 0.3002): 141.9 ± 6 J/K/mol
molar heat capacity at constant pressure (303.15 K, x1 = 0.4502): 178.1 ± 7.6 J/K/mol
molar heat capacity at constant pressure (303.15 K, x1 = 0.5992): 216.5 ± 9.2 J/K/mol
molar heat capacity at constant pressure (303.15 K, x1 = 0.7505): 260.2 ± 11 J/K/mol
molar heat capacity at constant pressure (303.15 K, x1 = 0.8989): 314.7 ± 13 J/K/mol
molar heat capacity at constant pressure (303.15 K, x1 = 1): 367.5 ± 16 J/K/mol
molar heat capacity at constant pressure (308.15 K, x1 = 0.1494): 108.6 ± 4.6 J/K/mol
molar heat capacity at constant pressure (308.15 K, x1 = 0.3002): 143.7 ± 6.1 J/K/mol
molar heat capacity at constant pressure (308.15 K, x1 = 0.4502): 180.3 ± 7.7 J/K/mol
molar heat capacity at constant pressure (308.15 K, x1 = 0.5992): 219.2 ± 9.3 J/K/mol
molar heat capacity at constant pressure (308.15 K, x1 = 0.7505): 263.4 ± 11 J/K/mol
molar heat capacity at constant pressure (308.15 K, x1 = 0.8989): 318.5 ± 14 J/K/mol
molar heat capacity at constant pressure (308.15 K, x1 = 1): 370.5 ± 16 J/K/mol
molar heat capacity at constant pressure (313.15 K, x1 = 0.1494): 110 ± 4.7 J/K/mol
molar heat capacity at constant pressure (313.15 K, x1 = 0.3002): 145.5 ± 6.2 J/K/mol
molar heat capacity at constant pressure (313.15 K, x1 = 0.4502): 182.5 ± 7.7 J/K/mol
molar heat capacity at constant pressure (313.15 K, x1 = 0.5992): 221.9 ± 9.4 J/K/mol
molar heat capacity at constant pressure (313.15 K, x1 = 0.7505): 266.6 ± 11 J/K/mol
molar heat capacity at constant pressure (313.15 K, x1 = 0.8989): 322.3 ± 14 J/K/mol
molar heat capacity at constant pressure (313.15 K, x1 = 1): 374.1 ± 16 J/K/mol
molar heat capacity at constant pressure (318.15 K, x1 = 0.1494): 111.3 ± 4.7 J/K/mol
molar heat capacity at constant pressure (318.15 K, x1 = 0.3002): 147.3 ± 6.3 J/K/mol
molar heat capacity at constant pressure (318.15 K, x1 = 0.4502): 184.7 ± 7.8 J/K/mol
molar heat capacity at constant pressure (318.15 K, x1 = 0.5992): 224.7 ± 9.5 J/K/mol
molar heat capacity at constant pressure (318.15 K, x1 = 0.7505): 269.9 ± 12 J/K/mol
molar heat capacity at constant pressure (318.15 K, x1 = 0.8989): 325.9 ± 14 J/K/mol
molar heat capacity at constant pressure (318.15 K, x1 = 1): 378 ± 16 J/K/mol
molar heat capacity at constant pressure (323.15 K, x1 = 0.1494): 112.7 ± 4.8 J/K/mol
molar heat capacity at constant pressure (323.15 K, x1 = 0.3002): 149.1 ± 6.3 J/K/mol
molar heat capacity at constant pressure (323.15 K, x1 = 0.4502): 186.9 ± 7.9 J/K/mol
molar heat capacity at constant pressure (323.15 K, x1 = 0.5992): 227.4 ± 9.6 J/K/mol
molar heat capacity at constant pressure (323.15 K, x1 = 0.7505): 273.1 ± 12 J/K/mol
molar heat capacity at constant pressure (323.15 K, x1 = 0.8989): 329.6 ± 14 J/K/mol
molar heat capacity at constant pressure (323.15 K, x1 = 1): 381.5 ± 16 J/K/mol
molar heat capacity at constant pressure (328.15 K, x1 = 0.1494): 113.8 ± 4.8 J/K/mol
molar heat capacity at constant pressure (328.15 K, x1 = 0.3002): 151 ± 6.4 J/K/mol
molar heat capacity at constant pressure (328.15 K, x1 = 0.4502): 189.1 ± 8 J/K/mol
molar heat capacity at constant pressure (328.15 K, x1 = 0.5992): 230.1 ± 9.8 J/K/mol
molar heat capacity at constant pressure (328.15 K, x1 = 0.7505): 276.4 ± 12 J/K/mol
molar heat capacity at constant pressure (328.15 K, x1 = 0.8989): 333.3 ± 14 J/K/mol
molar heat capacity at constant pressure (328.15 K, x1 = 1): 385.8 ± 16 J/K/mol
molar heat capacity at constant pressure (333.15 K, x1 = 0.1494): 115.5 ± 4.9 J/K/mol
molar heat capacity at constant pressure (333.15 K, x1 = 0.3002): 152.8 ± 6.5 J/K/mol
molar heat capacity at constant pressure (333.15 K, x1 = 0.4502): 191.3 ± 8.1 J/K/mol
molar heat capacity at constant pressure (333.15 K, x1 = 0.5992): 232.8 ± 9.9 J/K/mol
molar heat capacity at constant pressure (333.15 K, x1 = 0.7505): 279.6 ± 12 J/K/mol
molar heat capacity at constant pressure (333.15 K, x1 = 0.8989): 337 ± 14 J/K/mol
molar heat capacity at constant pressure (333.15 K, x1 = 1): 389.9 ± 16 J/K/mol
molar heat capacity at constant pressure (338.15 K, x1 = 0.1494): 116.8 ± 5 J/K/mol
molar heat capacity at constant pressure (338.15 K, x1 = 0.3002): 154.6 ± 6.6 J/K/mol
molar heat capacity at constant pressure (338.15 K, x1 = 0.4502): 193.5 ± 8.2 J/K/mol
molar heat capacity at constant pressure (338.15 K, x1 = 0.5992): 235.6 ± 10 J/K/mol
molar heat capacity at constant pressure (338.15 K, x1 = 0.7505): 282.8 ± 12 J/K/mol
molar heat capacity at constant pressure (338.15 K, x1 = 0.8989): 340.7 ± 14 J/K/mol
molar heat capacity at constant pressure (338.15 K, x1 = 1): 393.9 ± 17 J/K/mol
molar heat capacity at constant pressure (343.15 K, x1 = 0.1494): 118.3 ± 5 J/K/mol
molar heat capacity at constant pressure (343.15 K, x1 = 0.3002): 156.5 ± 6.6 J/K/mol
molar heat capacity at constant pressure (343.15 K, x1 = 0.4502): 195.7 ± 8.3 J/K/mol
molar heat capacity at constant pressure (343.15 K, x1 = 0.5992): 238.3 ± 10 J/K/mol
molar heat capacity at constant pressure (343.15 K, x1 = 0.7505): 286.1 ± 12 J/K/mol
molar heat capacity at constant pressure (343.15 K, x1 = 0.8989): 344.4 ± 15 J/K/mol
molar heat capacity at constant pressure (343.15 K, x1 = 1): 398.6 ± 17 J/K/mol
molar heat capacity at constant pressure (348.15 K, x1 = 0.1494): 119.6 ± 5.1 J/K/mol
molar heat capacity at constant pressure (348.15 K, x1 = 0.3002): 158.3 ± 6.7 J/K/mol
molar heat capacity at constant pressure (348.15 K, x1 = 0.4502): 197.9 ± 8.4 J/K/mol
molar heat capacity at constant pressure (348.15 K, x1 = 0.5992): 241 ± 10 J/K/mol
molar heat capacity at constant pressure (348.15 K, x1 = 0.7505): 289.3 ± 12 J/K/mol
molar heat capacity at constant pressure (348.15 K, x1 = 0.8989): 348.3 ± 15 J/K/mol
molar heat capacity at constant pressure (348.15 K, x1 = 1): 403.1 ± 17 J/K/mol
molar heat capacity at constant pressure (353.15 K, x1 = 0.1494): 121.3 ± 5.1 J/K/mol
molar heat capacity at constant pressure (353.15 K, x1 = 0.3002): 160.2 ± 6.8 J/K/mol
molar heat capacity at constant pressure (353.15 K, x1 = 0.4502): 200.2 ± 8.5 J/K/mol
molar heat capacity at constant pressure (353.15 K, x1 = 0.5992): 243.8 ± 10 J/K/mol
molar heat capacity at constant pressure (353.15 K, x1 = 0.7505): 292.6 ± 12 J/K/mol
molar heat capacity at constant pressure (353.15 K, x1 = 0.8989): 352 ± 15 J/K/mol
molar heat capacity at constant pressure (353.15 K, x1 = 1): 408.2 ± 17 J/K/mol
